Data from patent publication US9133207B2, “Tetrandrine derivatives with substituted 5-carbon, preparation method and use thereof” (Hangzhou Bensheng Pharmaceutical Co., Ltd., priority 2011, dated 2015).
In brackets after ≈: the same amount, converted by molar mass.

Columns and labels:
[1] = system: RPMI8226 (multiple myeloma); assay: Multiple myeloma cell growth inhibition, MTT, 72 h (Example 6); format: cell-based, human; details: Homo sapiens, RPMI-8226; 72 h, MTT, RPMI8226
In short: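 RPMI8226 cells (6000 per well) in RPMI 1640 with 10% FBS were exposed to a range of tetrandrine derivative concentrations for 72 h at 37 °C under 5% CO2. Viable cell concentration was then measured by MTT.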

MG63 (osteosarcoma) = assay: Solid tumor cell growth inhibition, MTT, 72 h (Example 7); format: cell-based, human; details: Homo sapiens; 72 h, MTT, MG-63
In short: (§1)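 Cells (4000/well) were seeded in DMEM high glucose with 10% FBS and grown 24 h at 37 °C, 5% CO2, then exposed to tetrandrine derivatives at different concentrations for 72 h. Viable cells were measured by MTT, with viability expressed as % of untreated control (100%).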

[2] = system: PANC-1 (pancreatic cancer); assay: as above; format: cell-based, human; details: Homo sapiens; 72 h, MTT, PANC-1
In short: as §1

PC-3 (prostate cancer) = assay: as above; format: cell-based, human; details: Homo sapiens; 72 h, MTT, PC-3
In short: as §1

[3] = system: CaES-17 (esophageal cancer cell); assay: as above; format: cell-based, human; details: Homo sapiens, CaEs17; 72 h, MTT, CAES-17
In short: as §1

[4] = system: Hep-2 (laryngeal carcinoma); assay: as above; format: cell-based, human; details: Homo sapiens; 72 h, MTT, Hep 2
In short: as §1

[5] = system: Becap37 (human breast cancer cell); assay: as above; format: cell-based; details: Homo sapiens; 72 h, MTT, Becap-37
In short: as §1

[6] = system: RKO (human colon adenocarcinoma cell); assay: as above; format: cell-based; details: Homo sapiens; 72 h, MTT, RKO
In short: as §1

[7] = system: SK-OV-3 (ovarian cancer cell); assay: as above; format: cell-based; details: Homo sapiens
In short: as §1

[8] = system: U87 MG (malignant glioma cell); assay: as above; format: cell-based; details: Homo sapiens, U-87 MG
In short: as §1

[9] = system: Hela (human cervical cancer cell); assay: as above; format: cell-based; details: Homo sapiens; 72 h, MTT, Hela
In short: as §1

[10] = system: CNE (nasopharyngeal carcinoma cell); assay: as above; format: cell-based; details: Homo sapiens
In short: as §1

A549 (human lung cancer) = assay: as above; format: cell-based; details: Homo sapiens; 72 h, MTT, A549
In short: as §1

[11] = system: MGC 803 (human gastric cancer cell); assay: as above; format: cell-based; details: Homo sapiens
In short: as §1

[12] = system: Huh7 (human liver cancer cell); assay: as above; format: cell-based; details: Homo sapiens; 72 h, MTT, Huh-7
In short: as §1

[13] = system: Jurkat (acute lymphoblastic leukemia, ALL); assay: Leukemia cell growth inhibition, MTT, 72 h (Example 5); format: cell-based, human; details: for IC50 / IC90: Homo sapiens, Jurkat, 72 h, MTT
In short: (§2)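 Growth inhibition by tetrandrine derivatives, dosed at several concentrations, was assessed via MTT after a 72-hour culture at 37° C.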

[14] = system: NB4 (acute promyelocytic leukemia, AML); assay: as above; format: cell-based, human; details: Homo sapiens; 72 h, MTT
In short: as §2

[15] = system: Kasumi-1 (acute myeloid leukemia M2 type, AML-M2); assay: as above; format: cell-based, human; details: Homo sapiens, Kasumi 1
In short: as §2

[16] = system: K562/adr (drug-resistant, chronic myeloid leukemia, CML); assay: as above; format: cell-based, human; details: Homo sapiens, K562/Adr; 72 h, MTT
In short: as §2

[17] = system: H9 (acute lymphoblastic leukemia, ALL); assay: as above; format: cell-based, human; details: Homo sapiens; 72 h, MTT
In short: as §2

In the case of `COc1ccc2cc1Oc1ccc(cc1)C[C@H]1c3cc(c(OC)cc3CCN1C)Oc1c(OC)c(OC)c(CNCc3ccc(C)o3)c3c1[C@H](C2)N(C)CC3` [BS-TE-358], the IC50 [1] is reported as 0.08 µg/mL (≈ 0.107 µM), the IC90 [1] is reported as 3.69 µg/mL (≈ 4.95 µM) and the IC50 (MG63 (osteosarcoma)) is reported as 1.5 µg/mL (≈ 2.01 µM). The IC90 (MG63 (osteosarcoma)) was 2.8 µg/mL (≈ 3.75 µM), the IC50 [2] was 2.66 µg/mL (≈ 3.57 µM) and the IC90 [2] was 9.71 µg/mL (≈ 13 µM). For the same compound, the IC50 (PC-3 (prostate cancer)) was 3.7 µg/mL (≈ 4.96 µM), the IC90 (PC-3 (prostate cancer)) was 5.9 µg/mL (≈ 7.91 µM) and the IC50 [3] was 2.69 µg/mL (≈ 3.61 µM). The IC90 [3] was 10.1 µg/mL (≈ 13.5 µM), the IC50 [4] was 3.37 µg/mL (≈ 4.52 µM) and the IC90 [4] was 7.54 µg/mL (≈ 10.1 µM). It also gave an IC50 [5] of 1.96 µg/mL (≈ 2.63 µM), an IC90 [5] of 4.5 µg/mL (≈ 6.03 µM) and an IC50 [6] of 0.6 µg/mL (≈ 0.804 µM). For the same compound, the IC90 [6] was 1.67 µg/mL (≈ 2.24 µM), the IC50 [7] was 4 µg/mL (≈ 5.36 µM) and the IC90 [7] was > 16 µg/mL. The IC50 [8] was 0.65 µg/mL (≈ 0.871 µM), the IC90 [8] was 1.99 µg/mL (≈ 2.67 µM) and the IC50 [9] was 2.12 µg/mL (≈ 2.84 µM). For the same compound, the IC90 [9] was 3.97 µg/mL (≈ 5.32 µM), the IC50 [10] was 2.26 µg/mL (≈ 3.03 µM) and the IC90 [10] was 4.12 µg/mL (≈ 5.52 µM). The IC50 (A549 (human lung cancer)) was 4 µg/mL (≈ 5.36 µM), the IC90 (A549 (human lung cancer)) was 16 µg/mL (≈ 21.5 µM) and the IC50 [11] was 1.39 µg/mL (≈ 1.86 µM). For the same compound, the IC90 [11] was 7.08 µg/mL (≈ 9.49 µM), the IC50 [12] was 1.35 µg/mL (≈ 1.81 µM) and the IC90 [12] was 1.92 µg/mL (≈ 2.57 µM). The IC50 [13] was 0.55 µg/mL (≈ 0.737 µM), the IC90 [13] was 4 µg/mL (≈ 5.36 µM) and the “anti-Jurkat activity increase over tetrandrine” value ([13]; compared with tetrandrine) was ~4 fold. The IC50 [14] was 0.8 µg/mL (≈ 1.07 µM), the IC90 [14] was 2 µg/mL (≈ 2.68 µM) and the IC50 [15] was 1.1 µg/mL (≈ 1.47 µM). It also gave an IC90 [15] of 3.71 µg/mL (≈ 4.97 µM), an IC50 [16] of 0.63 µg/mL (≈ 0.845 µM) and an IC90 [16] of 3.15 µg/mL (≈ 4.22 µM). It also gave an IC50 [17] of 1.45 µg/mL (≈ 1.94 µM) and an IC90 [17] of 2.4 µg/mL (≈ 3.22 µM).

Compound `COc1ccc2cc1Oc1ccc(cc1)C[C@H]1c3cc(c(OC)cc3CCN1C)Oc1c(OC)c(OC)c(CNCc3cccs3)c3c1[C@H](C2)N(C)CC3` [BS-TE-359] has an IC50 [1] of 0.05 µg/mL (≈ 0.0668 µM), an IC90 [1] of 1.42 µg/mL (≈ 1.9 µM) and an IC50 (MG63 (osteosarcoma)) of 1.1 µg/mL (≈ 1.47 µM). For the same compound, the IC90 (MG63 (osteosarcoma)) was 1.98 µg/mL (≈ 2.65 µM), the IC50 [2] was 2.44 µg/mL (≈ 3.26 µM) and the IC90 [2] was 8.04 µg/mL (≈ 10.7 µM). For the same compound, the IC50 (PC-3 (prostate cancer)) was 3 µg/mL (≈ 4.01 µM), the IC90 (PC-3 (prostate cancer)) was 4.7 µg/mL (≈ 6.28 µM) and the IC50 [3] was 1.61 µg/mL (≈ 2.15 µM). It also gave an IC90 [3] of 7.67 µg/mL (≈ 10.3 µM), an IC50 [4] of 4.6 µg/mL (≈ 6.15 µM) and an IC90 [4] of 8.29 µg/mL (≈ 11.1 µM). For the same compound, the IC50 [5] was 1.1 µg/mL (≈ 1.47 µM), the IC90 [5] was 2 µg/mL (≈ 2.67 µM) and the IC50 [6] was 0.58 µg/mL (≈ 0.775 µM). For the same compound, the IC90 [6] was 1.01 µg/mL (≈ 1.35 µM), the IC50 [7] was 2 µg/mL (≈ 2.67 µM) and the IC90 [7] was 14.4 µg/mL (≈ 19.3 µM). The IC50 [8] was 0.33 µg/mL (≈ 0.441 µM), the IC90 [8] was 1.01 µg/mL (≈ 1.35 µM) and the IC50 [9] was 1.09 µg/mL (≈ 1.46 µM). The IC90 [9] was 2.56 µg/mL (≈ 3.42 µM), the IC50 [10] was 1.57 µg/mL (≈ 2.1 µM) and the IC90 [10] was 2.83 µg/mL (≈ 3.78 µM). The IC50 (A549 (human lung cancer)) was 3.3 µg/mL (≈ 4.41 µM), the IC90 (A549 (human lung cancer)) was 12.8 µg/mL (≈ 17.1 µM) and the IC50 [11] was 0.88 µg/mL (≈ 1.18 µM). It also gave an IC90 [11] of 6 µg/mL (≈ 8.02 µM), an IC50 [12] of 1.19 µg/mL (≈ 1.59 µM) and an IC90 [12] of 1.68 µg/mL (≈ 2.25 µM). It also gave an IC50 [13] of 0.65 µg/mL (≈ 0.869 µM), an IC90 [13] of 5 µg/mL (≈ 6.68 µM) and an IC50 [14] of 0.4 µg/mL (≈ 0.535 µM). It also gave an IC90 [14] of 1 µg/mL (≈ 1.34 µM), an IC50 [15] of 0.42 µg/mL (≈ 0.562 µM) and an IC90 [15] of 1.83 µg/mL (≈ 2.45 µM). The IC50 [16] was 0.36 µg/mL (≈ 0.481 µM), the IC90 [16] was 2.18 µg/mL (≈ 2.91 µM) and the IC50 [17] was 1.25 µg/mL (≈ 1.67 µM). It also gave an IC90 [17] of 2.3 µg/mL (≈ 3.08 µM).
